Measured values as given in ChEMBL document CHEMBL1201862, “PubChem BioAssay data set” (2004).
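Five concentrations, 48 hours, 96-well plates. GI50 = concentration required for 50% inhibition of growth.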 Activity calls are given as the source filed them. Rule as the data show it: active = GI50 up to about 1.1 µM and inactive = higher.

Tests used:
Test in all cases: NCI-60 cell line screen, 48 h
A549 = test system: A549
COLO 205 = test system: COLO 205
EKVX = test system: EKVX
HL-60 = test system: HL-60
HT-29 = test system: HT-29
KM12 = test system: KM12
LOX IMVI = test system: LOX IMVI
Malme-3M = test system: Malme-3M
NCI-H460 = test system: NCI-H460
OVCAR-4 = test system: OVCAR-4
OVCAR-5 = test system: OVCAR-5
RPMI-8226 = test system: RPMI-8226
SF-295 = test system: SF-295
SK-MEL-2 = test system: SK-MEL-2
SNB-19 = test system: SNB-19
SNB-75 = test system: SNB-75
SR = test system: SR
OVCAR-3 = test system: OVCAR-3
UO-31 = test system: UO-31
HCC 2998 = test system: HCC 2998

Measured: GI50

CSc1nc(NC2OCC(OC(C)=O)C(OC(C)=O)C2OC(C)=O)c(/N=C(\C)C(C)=O)c(=O)[nH]1 (stereo not drawn)
inactive: A549 > 100 µM | COLO 205 > 100 µM | EKVX > 100 µM | HL-60 > 100 µM | HT-29 > 100 µM | KM12 > 100 µM | LOX IMVI > 100 µM | Malme-3M > 100 µM | NCI-H460 > 100 µM | OVCAR-4 > 100 µM | OVCAR-5 > 100 µM | RPMI-8226 > 100 µM | SF-295 > 100 µM | SK-MEL-2 > 100 µM | SNB-19 > 100 µM | SNB-75 > 100 µM | SR > 100 µM

COc1cc(CCN)c(OC)c(OC)c1
inactive: A549 > 100 µM | COLO 205 > 100 µM | EKVX > 100 µM | HL-60 40.4 µM | HT-29 > 100 µM | KM12 > 100 µM | LOX IMVI > 100 µM | Malme-3M > 100 µM | NCI-H460 > 100 µM | OVCAR-3 > 100 µM | OVCAR-4 > 100 µM | OVCAR-5 > 100 µM | RPMI-8226 93.3 µM | SF-295 > 100 µM | SK-MEL-2 > 100 µM | SNB-19 > 100 µM | SNB-75 > 100 µM | SR 50.8 µM | UO-31 > 100 µM

COc1cc(O)cc(O)c1C(=O)CC(Cl)(Cl)Cl
inactive: A549 > 100 µM | COLO 205 > 100 µM | EKVX > 100 µM | HCC 2998 > 100 µM | HL-60 > 100 µM | HT-29 > 100 µM | KM12 > 100 µM | LOX IMVI > 100 µM | Malme-3M > 100 µM | NCI-H460 > 100 µM | OVCAR-3 > 100 µM | OVCAR-4 > 100 µM | OVCAR-5 > 100 µM | RPMI-8226 40.1 µM | SF-295 > 100 µM | SNB-19 > 100 µM | SR > 100 µM | UO-31 > 100 µM

COc1cc(/N=N\c2cccc(S(=O)(=O)O)c2)ccc1/N=N\c1ccc(/C=C/c2ccc(-n3on3-c3ccc(/C=C/c4ccc(/N=N/c5ccc(/N=N\c6cccc(S(=O)(=O)O)c6)cc5OC)cc4S(=O)(=O)O)c(S(=O)(=O)O)c3)cc2S(=O)(=O)O)c(S(=O)(=O)O)c1
inactive: A549 > 100 µM | COLO 205 > 100 µM | EKVX > 100 µM | HCC 2998 > 100 µM | HL-60 > 80 µM | HT-29 > 100 µM | KM12 > 100 µM | LOX IMVI > 100 µM | Malme-3M > 100 µM | NCI-H460 > 100 µM | OVCAR-3 > 100 µM | OVCAR-4 > 100 µM | OVCAR-5 > 100 µM | RPMI-8226 > 100 µM | SF-295 > 100 µM | SK-MEL-2 > 100 µM | SNB-19 > 100 µM | SNB-75 91.8 µM | UO-31 > 100 µM

Sc1nnc(-c2ccnc(-c3nnc(S)[nH]3)c2)[nH]1
inactive: A549 > 100 µM | COLO 205 > 100 µM | EKVX > 100 µM | HCC 2998 > 100 µM | HL-60 > 100 µM | HT-29 > 100 µM | KM12 > 100 µM | LOX IMVI > 100 µM | Malme-3M > 100 µM | NCI-H460 > 100 µM | OVCAR-3 > 100 µM | OVCAR-4 > 100 µM | OVCAR-5 > 100 µM | RPMI-8226 > 100 µM | SF-295 > 100 µM | SK-MEL-2 > 100 µM | SNB-19 > 100 µM | UO-31 > 100 µM

S=c1sc2c(s1)SC(c1ccccc1)CS2 (stereo not drawn)
inactive: A549 > 100 µM | COLO 205 > 100 µM | EKVX > 100 µM | HCC 2998 > 85.1 µM | HL-60 > 51.3 µM | HT-29 > 100 µM | KM12 > 100 µM | LOX IMVI > 86.3 µM | Malme-3M > 100 µM | NCI-H460 > 100 µM | OVCAR-3 > 66.2 µM | OVCAR-4 20.4 µM | OVCAR-5 > 100 µM | RPMI-8226 > 100 µM | SF-295 25.8 µM | SK-MEL-2 > 100 µM | SNB-19 > 100 µM | SNB-75 > 45 µM | UO-31 > 100 µM

O=S(=O)(C1=CC(S(=O)(=O)c2ccccc2)CN(Cc2ccccc2)C1c1cccc2ccccc12)c1ccccc1 (stereo not drawn)
inactive: A549 > 69 µM | EKVX > 69 µM | HCC 2998 > 69 µM | HL-60 > 69 µM | HT-29 > 69 µM | KM12 > 69 µM | LOX IMVI > 69 µM | Malme-3M > 69 µM | NCI-H460 > 69 µM | OVCAR-3 > 69 µM | OVCAR-4 > 69 µM | OVCAR-5 > 69 µM | RPMI-8226 > 69 µM | SF-295 > 69 µM | SK-MEL-2 > 69 µM | SNB-19 > 69 µM | SNB-75 > 69 µM | UO-31 > 69 µM

O=Nn1c2ccccc2c2cc([N+](=O)[O-])ccc21
inactive: A549 19.9 µM | COLO 205 34.3 µM | EKVX 11.2 µM | HCC 2998 33 µM | HL-60 > 100 µM | HT-29 18 µM | KM12 17.5 µM | LOX IMVI 14.7 µM | Malme-3M 12.9 µM | NCI-H460 18 µM | OVCAR-3 17.9 µM | OVCAR-4 16.8 µM | OVCAR-5 16.5 µM | RPMI-8226 13.3 µM | SF-295 15.2 µM | SK-MEL-2 36.3 µM | SNB-19 20.7 µM | SNB-75 7.23 µM | UO-31 22.4 µM

N/C(=N\O)N/N=C\c1ccc(O)c(O)c1O
inactive: A549 > 58.7 µM | COLO 205 12.9 µM | EKVX > 78.5 µM | HCC 2998 36.9 µM | HL-60 17.2 µM | HT-29 11.1 µM | KM12 26.7 µM | LOX IMVI 16.3 µM | Malme-3M > 100 µM | NCI-H460 17.1 µM | OVCAR-3 22.7 µM | OVCAR-4 10.9 µM | OVCAR-5 > 48.1 µM | RPMI-8226 41.5 µM | SF-295 12.2 µM | SK-MEL-2 > 46 µM | SNB-19 > 51.9 µM | SNB-75 17.3 µM | UO-31 > 100 µM

Cc1ccc(NC(=O)CSc2nnc(-c3ccc(/N=C\c4ccc(Cl)cc4)cc3)o2)cc1
inactive: A549 > 100 µM | COLO 205 > 100 µM | EKVX > 100 µM | HL-60 > 100 µM | HT-29 > 100 µM | KM12 > 100 µM | LOX IMVI > 100 µM | Malme-3M > 100 µM | NCI-H460 > 100 µM | OVCAR-4 > 100 µM | RPMI-8226 > 100 µM | SF-295 > 100 µM | SK-MEL-2 > 100 µM | SNB-19 > 100 µM | SNB-75 72.8 µM | SR > 100 µM | UO-31 > 100 µM

CCOC(=O)C1=C(C)NC(=O)N([N+](=O)[O-])C1c1ccccc1C(F)(F)F (stereo not drawn)
inactive: A549 > 100 µM | COLO 205 > 100 µM | HL-60 55.2 µM | HT-29 75.2 µM | LOX IMVI 31 µM | Malme-3M 24.3 µM | NCI-H460 > 100 µM | OVCAR-3 47.5 µM | OVCAR-4 27.2 µM | OVCAR-5 > 100 µM | RPMI-8226 23.4 µM | SF-295 57.7 µM | SK-MEL-2 > 100 µM | SNB-19 > 100 µM | SR 31.8 µM | UO-31 > 100 µM

CC1(C)N=C(c2ccccc2)SC12S[C@@H]1CCCC[C@H]1S2
inactive: A549 > 100 µM | COLO 205 > 100 µM | EKVX > 100 µM | HL-60 > 100 µM | HT-29 94.6 µM | KM12 > 100 µM | LOX IMVI > 100 µM | Malme-3M 56.2 µM | NCI-H460 > 100 µM | OVCAR-3 > 100 µM | OVCAR-4 > 100 µM | OVCAR-5 > 100 µM | RPMI-8226 32.2 µM | SF-295 > 100 µM | SK-MEL-2 > 100 µM | SNB-19 13.2 µM | SNB-75 > 100 µM | UO-31 > 100 µM

COc1cc([N+](=O)[O-])ccc1N1C(=O)C2c3[nH]c4ccccc4c3C3CCC(C(C)(C)C)CC3C2C1=O (stereo not drawn)
inactive: A549 > 100 µM | COLO 205 > 100 µM | EKVX 33.4 µM | HCC 2998 > 100 µM | HL-60 > 100 µM | HT-29 88.9 µM | KM12 > 100 µM | LOX IMVI 18.5 µM | Malme-3M > 100 µM | NCI-H460 18.9 µM | OVCAR-3 > 100 µM | OVCAR-4 17.2 µM | OVCAR-5 80.5 µM | RPMI-8226 > 100 µM | SK-MEL-2 94.8 µM | SR > 100 µM | UO-31 > 100 µM

Cc1cccc(C)c1NC(=O)/C(CC(=O)CC(c1ccccc1)c1c(O)c2ccccc2oc1=O)=N/O (stereo not drawn)
inactive: A549 > 100 µM | COLO 205 > 100 µM | EKVX > 100 µM | HCC 2998 > 100 µM | HL-60 > 100 µM | HT-29 > 100 µM | KM12 > 100 µM | LOX IMVI > 100 µM | NCI-H460 > 100 µM | OVCAR-3 > 100 µM | OVCAR-4 > 100 µM | OVCAR-5 > 100 µM | SF-295 > 100 µM | SK-MEL-2 > 100 µM | SNB-19 > 100 µM | SNB-75 > 100 µM | UO-31 > 100 µM

COC(=O)C(C)NP(=O)(N1CC1)N1CC1 (stereo not drawn)
inactive: A549 > 100 µM | COLO 205 > 100 µM | EKVX > 100 µM | HCC 2998 > 100 µM | HL-60 32.7 µM | HT-29 > 100 µM | KM12 > 100 µM | LOX IMVI 80 µM | Malme-3M > 100 µM | OVCAR-4 > 100 µM | OVCAR-5 > 100 µM | RPMI-8226 > 100 µM | SF-295 92.5 µM | SK-MEL-2 > 100 µM | SNB-19 > 100 µM | SNB-75 > 100 µM | UO-31 > 100 µM
